Patent US9175013B2, “Fused aminodihydrothiazine derivatives” (Eisai R&D Management Co., Ltd., priority 2011, dated 2015)
Like-named read-outs stand apart in the source and are kept apart here.

Experiment: Rat in vivo CNS penetration: plasma, brain and CSF concentrations by LC-MS/MS
Conditions: male, Sprague Dawley, po, 10 mg/kg, 10 mg/kg p.o.; for concentration at 2 h / Kp at 2 h: 2 h post-dose; for concentration at 4 h / Kp at 4 h: 4 h post-dose; for concentration at 6 h / Kp at 6 h: 6 h post-dose; for concentration at 8 h / Kp at 8 h: 8 h post-dose
Experimental: Rat In Vivo CNS Penetration Male Sprague Dawley rats were acquired from Charles River UK Ltd. (Margate, UK) and housed according to UK Home Office guidelines. Drugs were made up to the appropriate concentrations in 0.5% methyl cellulose. Animals were dosed orally (2 mL/kg) by gavage at the doses outlined in Tables 1 to 4 below. At the time points post-dosing, specified in the Tables 1 to 4 below the animals were administered an i.p. injection of sodium pentobarbitone (approximately 330 mg/kg for terminal anaesthesia). Using a guillotine, the animals were decapitated and trunk blood collected into 15 ml Falcon tubes containing 100 IU heparin. Blood was vortexed followed by centrifugation at 6000 rpm, 4° C. for 5 minutes. Plasma was collected for DMPK and ELISA assays and stored at −80° C. until use. Brains were dissected out and divided along the midline, weighed and stored at −80° C. until further use. Method for Analysis of Plasma, Brain and CSF Samples Test compound was prepared as a 1 mg free base/mL solution in DMSO, vortexed and sonicated for 5 min. The 1 mg/mL DMSO solution was diluted to 10 and 30 μg/mL acetonitrile stocks, by adding 10 μL to 990 μL acetonitrile and 30 μL to 970 acetonitrile, respectively. The 10 and 30 μg/mL acetonitrile stocks were then serially diluted 1:9 (v/v) (100 μL stock into 900 μL acetonitrile) to give the following solutions: 0.003, 0.01, 0.03, 0.1, 0.3, 1, 3, 10 and 30 μg/mL acetonitrile. Control male Sprague Dawley rat plasma and the study plasma samples were stored at −80° C. until the day of analysis when they were thawed at room temperature. Control plasma was centrifuged (2,000 g for 10 min) and aliquoted (90 μL) into eppendorf tubes for preparation of standards and blank samples. Study samples were previously aliquoted (100 μL) into eppendorf tubes immediately following collection of the plasma. An aliquot (10 μL) of the appropriate acetonitrile stock was added to the control plasma (to give a final volume of 100 μL) to give the required calibration standards covering the range 1-3000 ng/mL. Double blank and blank samples were prepared by adding 10 μL of acetonitrile to 90 μL of blank plasma. Control male Sprague Dawley rat brain and the study brain samples were weighed after collection and stored at −80° C. until the day of analysis when they were thawed at room temperature. Once thawed brains were diluted with water (4 mL per gram of tissue) and homogenised using a mechanical homogeniser. An aliquot (100 μL) of each study sample was taken into Micronics tubes ready for analysis and sufficient aliquots (90 μL) of control brain homogenate prepared for preparation of standards and blanks. An aliquot (10 μL) of the appropriate acetonitrile stocks was added to the control brain homogenate (to give a final volume of 100 μL) to give the required calibration standards covering the range 1.5-5000 ng/g. Double blank and blank samples were prepared by adding 10 μL of acetonitrile to 90 μL of blank brain homogenate. Each plasma and brain homogenate sample, standard and blank (100 μL) was extracted with an aliquot (300 μL) of acetonitrile (containing 0.1% formic acid and 100 ng/mL of an appropriate internal standard). Double blanks were extracted with an aliquot (300 μL) of acetonitrile containing 0.1% formic acid). All samples, standards and blanks were then vortex mixed and centrifuged (2000 g for 15 min). An aliquot (50 μL) of the resulting supernatant was then taken into a 2 mL 96-deep well plate and diluted with acetonitrile:water (50:50 v/v) (150 μL) ready for analysis by a specific LC-MS/MS method. Control male Sprague Dawley rat CSF and the study CSF samples were stored at −80° C. until the day of analysis when they were thawed at room temperature. An aliquot (50 μL) of each study sample was taken into Micronics tubes ready for analysis and sufficient aliquots (45 μL) of control CSF prepared for preparation of standards and blanks. […]

[1] = CSF, CSF concentration, read-out: [CSF]
[2] = brain, total brain concentration, read-out: [Br]
[3] = brain, unbound brain, [Br] x Br Fu, read-out: [Bru]
[4] = plasma, total plasma concentration, read-out: [Pl]
[5] = plasma, unbound plasma, [Pl] x Pl Fu, read-out: [Plu]

## COc1cnc(C(=O)Nc2cc(F)c(F)c([C@]34CO[C@H](CF)[C@H]3CSC(N)=N4)c2)cn1 [Example 4, N-(3-((4aS,5S,7aS)-2-amino-5-(fluoromethyl)-4a,5,7,7a-tetrahydro-4H-furo[3,4-d][1,3]thiazin-7a-yl)-4,5-difluorophenyl)-5-methoxypyrazine-2-carboxamide]
[1]
  concentration at 2 h: 33 nM
  concentration at 4 h: 40 nM
  concentration at 6 h: 13 nM
  concentration at 8 h: 8 nM
CSF, read-out: CSF:Plu
  Kp at 2 h: 0.6
  Kp at 4 h: 0.6
  Kp at 6 h: 0.6
  Kp at 8 h: 0.6
brain, read-out: Brtot:Pltot
  Kp at 2 h: 3.8
  Kp at 4 h: 3.4
  Kp at 6 h: 3.8
  Kp at 8 h: 3.7
brain, read-out: Bru:Plu
  Kp at 2 h: 0.6
  Kp at 4 h: 0.5
  Kp at 6 h: 0.6
  Kp at 8 h: 0.6
[2]
  concentration at 2 h: 1470 nM
  concentration at 4 h: 1620 nM
  concentration at 6 h: 609 nM
  concentration at 8 h: 385 nM
[3]
  concentration at 2 h: 31 nM
  concentration at 4 h: 34 nM
  concentration at 6 h: 13 nM
  concentration at 8 h: 8 nM
[4]
  concentration at 2 h: 392 nM
  concentration at 4 h: 482 nM
  concentration at 6 h: 162 nM
  concentration at 8 h: 105 nM
[5]
  concentration at 2 h: 51 nM
  concentration at 4 h: 63 nM
  concentration at 6 h: 21 nM
  concentration at 8 h: 14 nM
